In article PMC11730078, “Virtual screening and evaluation of bioactive peptides from Haliotis discus hannai as potential HMGCR inhibitors for hyperlipidemia treatment” (Frontiers in Nutrition, 2024):

What was measured:
[1] = tested on: HMG-CoA reductase (HMGCR); assay: HMG-CoA reductase inhibitory activity (HMG-CoA Reductase Assay Kit, Abcam ab204701); assay type: biochemical; settings: 1 mM peptide, 0.5 mM Atorvastatin as positive control, OD340, 37°C, mean ± SD, three biological replicates, Figure 3B
Experimental: The HMG-CoA reductase inhibitory activities were determined using the HMG-CoA Reductase Assay Kit (Abcam, ab204701) as previously described ([19]). Enzyme activity was measured by monitoring the decrease in absorbance at 340 nm and 37°C, following the manufacturer’s instructions. The reaction mix consisted of a mixture of HMG-CoA:NADPH:HMG-CoA reductase buffer assay (12:4:174; 190 μL). In a 96-well flat-bottomed microtiter plate, 5 μL of HMG-CoA reductase, 2 μL of inhibitor, and 3 μL of buffer were mixed. The addition of 190 μL of reaction mix marked the initiation of the enzyme reaction. OD340 was measured for 10 min at 2-min intervals at 37°C.
HMGCR inhibition rate (%)=−ΔA340nm/ΔTEnzyme−−ΔA340nm/ΔTEnzyme+Inhubitor/−ΔA340nm/ΔTEnzyme×100.

high-fat Hep-G2 cells [2] = assay: TC content in FFAs-induced high-fat Hep-G2 cells; assay type: cell-based; settings: 24 h; for TC level in high-fat Hep-G2 cells, dose effect: peptide 50, 100, 200, 400 μM with FFAs
Experimental: Cells grown to the log phase were digested, gently mixed using a pipette, and collected via centrifugation. The cells were then resuspended in a culture medium and homogenized using a pipette. A hemocytometer was used to count the cells diluted to 2 × 10^5/mL using a complete medium. Then, 250 μL of the cell suspension was pipetted into a 48-well cell culture plate for incubation in a CO2 incubator at 37°C for 14–16 h. […] Control groups were performed without peptides or FFAs. The model groups were treated with FFAs only, without peptides. Next, the cells were washed with DPBS and lysed for 45 min on ice using 1.5% Triton-X100. TC, TG, HDL-C, and LDL-C levels were determined using Nanjing Jiancheng assay kits.

[3] = Inhibition of cholesterol micelle solubility in vitro; settings: for Cholesterol micelle solubility inhibition rate: 1 mM peptide, micelles of 10 mM sodium taurocholate, 0.4 mM cholesterol, 1 mM oleic acid, pH 7.4, 37°C, 24 h, mean ± SD, three biological replicates, Figure 3C, SD; for Inhibition of cholesterol micellar solubility, comparison and dose trend: peptide 50, 100, 200, 400 μM, Figure 4D
Experimental: After sequence identification, the peptide sequences were obtained through solid-phase synthesis by GenScript (Nanjing, China). The inhibitory effect of the peptide on cholesterol micelle solubility was measured as previously described with some modifications ([18]). Micellar solutions (1 mL) contained 10 mM sodium taurocholate, 0.4 mM cholesterol, 1 mM oleic acid, 132 mM NaCl, and 15 mM sodium phosphate (pH 7.4). […] After mixing, the samples were ultrasonically emulsified at 37°C for 30 min and incubated on a shaker at 37°C for 24 h. The samples were centrifuged at 8,000 × g for 20 min, and a total cholesterol (T-CHO) assay kit (Jiancheng Bioengineering Institute, Nanjing, China) was used for measurement. The inhibitory effect of the peptide solution on cholesterol micelle solubility was calculated as follows: (1) Cholesterol micelle solubility inhibition rate() =C0−C1/C0×100 where C0 is the initial cholesterol concentration in the micelles, and C1 is the cholesterol concentration in the micelles after sample addition.

high-fat Hep-G2 cells [4] = assay: TG content in FFAs-induced high-fat Hep-G2 cells; assay type: cell-based; settings: 400 μM peptide with FFAs, 24 h; for TG content in high-fat Hep-G2 cells: mean ± SD, three biological replicates, Figure 4C, SD
Experimental: Cells grown to the log phase were digested, gently mixed using a pipette, and collected via centrifugation. The cells were then resuspended in a culture medium and homogenized using a pipette. A hemocytometer was used to count the cells diluted to 2 × 10^5/mL using a complete medium. Then, 250 μL of the cell suspension was pipetted into a 48-well cell culture plate for incubation in a CO2 incubator at 37°C for 14–16 h. After reaching 80–90% confluency, cells were incubated with peptides (50, 100, 200, or 400 μM) and FFAs (10% oleic acid and palmitic acid) for 24 h. Control groups were performed without peptides or FFAs. The model groups were treated with FFAs only, without peptides. Next, the cells were washed with DPBS and lysed for 45 min on ice using 1.5% Triton-X100. TC, TG, HDL-C, and LDL-C levels were determined using Nanjing Jiancheng assay kits.

| Substance | HMGCR inhibition rate [1] | TC level in high-fat Hep-G2 cells, dose effect (high-fat Hep-G2 cells [2]; Figure 4B) | Cholesterol micelle solubility inhibition rate [3] | Inhibition of cholesterol micellar solubility, comparison and dose trend [3] | TC accumulation in high-fat Hep-G2 cells compared with model group (high-fat Hep-G2 cells [2]; peptide 1 mM with FFAs, Figure 3A) | Decrease of TG content compared with model group (high-fat Hep-G2 cells [4]) | TG content in high-fat Hep-G2 cells (high-fat Hep-G2 cells [4]) [mmol/gprot] | TC level in high-fat Hep-G2 cells compared with model group (high-fat Hep-G2 cells [2]; 400 μM peptide with FFAs, Figure 4B) |
| --- | --- | --- | --- | --- | --- | --- | --- | --- |
| LPAYPMP | 54.65% ± 0.36 | not significant | 41.55% ± 5.48 | showed inhibition of cholesterol micellar solubility | – | – | – | – |
| WFKTM [abalone viscera peptide, top 20 after virtual screening, synthesized by GenScript] | – | – | – | – | all peptides, except for WFKTM, alleviated TC accumulation | – | – | – |
| QDAVMPNPF | – | not significant | 47.94% ± 0.58 | showed inhibition of cholesterol micellar solubility | – | 31.31% ± 0.10 | 0.33 ± 0.05 | – |
| DYPRPW | 51.81% ± 0.70 | the higher the concentration, the lower the TC level | 37.29% ± 1.45 | superior inhibition rate | – | – | – | significantly lower than that in the model group |
| APDMAFPR | 59.55% ± 0.46 | not significant | 35.87% ± 2.56 | weakest inhibitory effect | – | 34.86% ± 0.08 | 0.31 ± 0.04 | – |
| SPADIGFH [abalone viscera peptide, top 20 after virtual screening, synthesized by GenScript] | 53.89% ± 3.89 | – | 45.23% ± 3.68 | – | – | – | – | – |
